From patent publication US20260042753A1 (Merck Patent GmbH, priority 2019, published 2026) come the findings set out here.

Read-outs that look alike come from different tables or passages of the source.

One assay addresses c-Kit(V654A) (Homo sapiens, UniProt P10721, V654A). Kind of assay: c-Kit(V654A) assay. It counts as biochemical. The procedure, abridged: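 Radiometric filter-binding read-out: after 3% phosphoric acid stop, peptide-incorporated 33P on filtermat scintillation-counted. Enzyme: human c-Kit V654A, residues 544–end, N-terminal GST fusion.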
Assay [1] concerns the target mutant cKIT (560-576 and V654A) in GIST430/654 cell line (Homo sapiens (Human), UniProt P10721, DEL560-576/V654A). The experiment in a line: Cellular testing of cKIT mutant inhibitors: phospho-Y307-cKIT Luminex assay in GIST430/654 cells. The class given is cell-based. Particulars: read-out: GIST 430/654 IC50. Put shortly: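 Autophosphorylation of mutant cKIT at Y307 was quantified by a Luminex bead sandwich assay (total-cKIT capture, phosphospecific detection) after 45 min compound exposure in GIST430/654 cells, cultured in medium containing 100 nM imatinib. Signals were normalised to solvent (0.3% DMSO) controls and dose-response curves fitted for IC50.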

[2] abbreviates: Table 1, cKIT autophosphorylation, compounds 45 min.
The mark [3] stands for this setting: Table 2, corresponding triazole derivatives.

Chain of mutant cKIT (560-576 and V654A) in GIST430/654 cell line (P10721 other isoform, or with tags, fused parts or gaps V654A/del 1-25/del 560-576 limits assumed): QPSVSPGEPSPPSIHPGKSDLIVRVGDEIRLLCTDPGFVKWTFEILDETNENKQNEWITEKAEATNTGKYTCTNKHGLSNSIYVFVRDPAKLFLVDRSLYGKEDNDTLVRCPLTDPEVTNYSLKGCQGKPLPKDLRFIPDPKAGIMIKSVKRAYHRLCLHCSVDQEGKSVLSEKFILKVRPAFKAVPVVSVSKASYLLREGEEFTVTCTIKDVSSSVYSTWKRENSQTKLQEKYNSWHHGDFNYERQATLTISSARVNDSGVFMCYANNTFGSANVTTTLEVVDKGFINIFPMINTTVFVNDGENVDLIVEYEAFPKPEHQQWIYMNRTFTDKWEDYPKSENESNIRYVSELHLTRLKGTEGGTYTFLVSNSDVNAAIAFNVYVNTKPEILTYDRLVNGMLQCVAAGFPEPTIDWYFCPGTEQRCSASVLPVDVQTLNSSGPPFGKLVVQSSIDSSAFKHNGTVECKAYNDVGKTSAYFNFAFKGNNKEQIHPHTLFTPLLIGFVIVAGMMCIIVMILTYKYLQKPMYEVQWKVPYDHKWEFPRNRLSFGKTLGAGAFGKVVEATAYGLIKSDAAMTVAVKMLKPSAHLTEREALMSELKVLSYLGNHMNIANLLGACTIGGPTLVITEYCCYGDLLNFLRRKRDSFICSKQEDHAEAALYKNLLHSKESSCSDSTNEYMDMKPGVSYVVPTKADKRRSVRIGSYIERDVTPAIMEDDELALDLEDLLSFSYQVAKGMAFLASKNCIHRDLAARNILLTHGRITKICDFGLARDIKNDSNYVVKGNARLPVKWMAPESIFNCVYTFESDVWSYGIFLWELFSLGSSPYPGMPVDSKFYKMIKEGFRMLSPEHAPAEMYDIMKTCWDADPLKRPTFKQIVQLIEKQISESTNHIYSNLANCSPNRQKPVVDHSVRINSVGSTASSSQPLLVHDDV

As for `COCCOc1cc2[nH]nc(-c3cc(-c4ccc(C(=O)N5CCC[C@@H]5CS(C)(=O)=O)cc4)no3)c2cc1F` [A55, 5-fluoro-3-(3-{4-[(2R)-2-(methanesulfonylmethyl)pyrrolidine-1-carbonyl]phenyl}-1,2-oxazol-5-yl)-6-(2-methoxyethoxy)-1H-indazole], the IC50 against c-Kit(V654A) (Table 1, 200 μM ATP) amounted to 0.73 nM; in assay [1] (setting [2]), 65 nM.

For the compound `COCCOc1cc2[nH]nc(-c3cc(-c4ccc(C(=O)N5CC6(C5)CS(=O)(=O)C6)cc4)no3)c2cc1F` [A151, 6-(4-{5-[5-fluoro-6-(2-methoxyethoxy)-1H-indazol-3-yl]-1,2-oxazol-3-yl}benzoyl)-2lambda6-thia-6-azaspiro[3.3]heptane-2,2-dione], the IC50 against c-Kit(V654A) (Table 1, 200 μM ATP) was determined as 0.71 nM; in assay [1] (setting [2]), 240 nM.

`COCCOc1cc2[nH]nc(-c3cc(-c4ccc(C(=O)N5CC[C@@H]5CS(C)(=O)=O)cc4)no3)c2cc1F` [A154, 5-fluoro-3-(3-{4-[(2R)-2-(methanesulfonylmethyl)azetidine-1-carbonyl]phenyl}-1,2-oxazol-5-yl)-6-(2-methoxyethoxy)-1H-indazole]: the IC50 is 0.89 nM on c-Kit(V654A) (Table 1, 200 μM ATP) and 110 nM in assay [1] (setting [2]).

For `COCCOc1cc2[nH]nc(-c3cc(-c4ccc(C(=O)N5CC[C@H]5CS(C)(=O)=O)cc4)no3)c2cc1F` [A152, 5-fluoro-3-(3-{4-[(2S)-2-(methanesulfonylmethyl)azetidine-1-carbonyl]phenyl}-1,2-oxazol-5-yl)-6-(2-methoxyethoxy)-1H-indazole], the IC50 against c-Kit(V654A) (Table 1, 200 μM ATP) stood at 0.88 nM; in assay [1] (setting [2]), 64 nM.

Consider `COCCOc1cc2[nH]nc(-c3cn(-c4ccc(C(=O)N5CCN(C)CC5)cc4)nn3)c2cc1F` [reference compound], for which the IC50 against c-Kit(V654A) (setting [3]) came to 15 nM; in assay [1] (setting [3]) it was 840 nM.

In the case of `COCCOc1cc2[nH]nc(-c3cc(-c4ccc(N5CC[S+]([O-])CC5)nc4)no3)c2cc1F` [A140, 4-(5-{5-[5-fluoro-6-(2-methoxyethoxy)-1H-indazol-3-yl]-1,2-oxazol-3-yl}pyridin-2-yl)-1lambda4-thiomorpholin-1-one], the IC50 against c-Kit(V654A) (Table 1, 200 μM ATP) was 1.6 nM; in assay [1] (setting [2]), 46 nM.

For `COCCOc1cc2[nH]nc(-c3cc(-c4ccc(C)nc4)no3)c2cc1Cl` [A13, 5-chloro-6-(2-methoxyethoxy)-3-[3-(6-methylpyridin-3-yl)-1,2-oxazol-5-yl]-1H-indazole], the IC50 at c-Kit(V654A) (Table 1, 200 μM ATP) was 11 nM; in assay [1] (setting [2]) it was 300 nM.

`CC(C)(O)C1CCCN1C(=O)c1ccc(-c2cc(-c3n[nH]c4cc(C(F)(F)F)ccc34)on2)cc1` (stereo not shown) [A1, 2-[1-(4-{5-[6-(trifluoromethyl)-1H-indazol-3-yl]-1,2-oxazol-3-yl}benzoyl)pyrrolidin-2-yl]propan-2-ol]: the IC50 at c-Kit(V654A) (Table 1, 200 μM ATP) is 15 nM; in assay [1] (setting [2]), 350 nM.

With `COCCOc1cc2[nH]nc(-c3cc(-c4ccc(C(=O)N5CC(N6CCOCC6)C5)cc4)on3)c2cc1F` [A146, (4-{3-[5-fluoro-6-(2-methoxy-ethoxy)-1H-indazol-3-yl]-isoxazol-5-yl}-phenyl)-(3-morpholin-4-yl-azetidin-1-yl)-methanone], the IC50 stood at 2.9 nM on c-Kit(V654A) (Table 1, 200 μM ATP) and 90 nM in assay [1] (setting [2]).

In the case of `COCCOc1cc2[nH]nc(-c3cc(-c4ccc(C(=O)N5CCN(C6COC6)CC5)cc4)no3)c2cc1Cl` [A194, (4-{5-[5-chloro-6-(2-methoxy-ethoxy)-1H-indazol-3-yl]-isoxazol-3-yl}-phenyl)-(4-oxetan-3-yl-piperazin-1-yl)-methanone], the IC50 at c-Kit(V654A) (Table 1, 200 μM ATP) turned out to be 0.78 nM; in assay [1] (setting [2]), 44 nM.

Consider `COCCOc1cc2[nH]nc(-c3cc(-c4ccc(C(=O)N5CC[C@@H]6COC[C@@H]6C5)cc4)no3)c2cc1F` (relative stereo) [A215, 3-(3-{4-[(cis)-octahydrofuro[3,4-c]pyridine-5-carbonyl]phenyl}-1,2-oxazol-5-yl)-5-fluoro-6-(2-methoxyethoxy)-1H-indazole], for which the IC50 is 0.76 nM at c-Kit(V654A) (Table 1, 200 μM ATP) and 35 nM in assay [1] (setting [2]).

As to `COCCOc1cc2[nH]nc(-c3cc(-c4ccc(C(=O)N5CC(N6CCN(C7COC7)CC6)C5)cc4)no3)c2cc1F` [A197, 5-fluoro-6-(2-methoxyethoxy)-3-[3-(4-{3-[4-(oxetan-3-yl)piperazin-1-yl]azetidine-1-carbonyl}phenyl)-1,2-oxazol-5-yl]-1H-indazole], the IC50 worked out at 1.9 nM at c-Kit(V654A) (Table 1, 200 μM ATP) and 87 nM in assay [1] (setting [2]).

Take `COCCOc1cc2[nH]nc(-c3cc(-c4ccc(C(=O)N5CCOCC56COC6)cc4)no3)c2cc1F` [A155, 5-(4-{5-[5-fluoro-6-(2-methoxyethoxy)-1H-indazol-3-yl]-1,2-oxazol-3-yl}benzoyl)-2,8-dioxa-5-azaspiro[3.5]nonane]: the IC50 amounted to 1.6 nM against c-Kit(V654A) (Table 1, 200 μM ATP) and 60 nM in assay [1] (setting [2]).

Consider `COCCOc1cc2[nH]nc(-c3cc(-c4ccc(S(=O)(=O)N(C)C)cc4)no3)c2cc1F` [A144, 4-{5-[5-fluoro-6-(2-methoxyethoxy)-1H-indazol-3-yl]-1,2-oxazol-3-yl}-N,N-dimethylbenzene-1-sulfonamide], for which the IC50 on c-Kit(V654A) (Table 1, 200 μM ATP) turned out to be 3.2 nM; in assay [1] (setting [2]), 1900 nM.

Take `COCCOc1cc2[nH]nc(-c3cc(-c4ccc(C(=O)N5CCO[C@H](C)C5)cc4)no3)c2cc1F` [A180, 5-fluoro-6-(2-methoxyethoxy)-3-(3-{4-[(2R)-2-methylmorpholine-4-carbonyl]phenyl}-1,2-oxazol-5-yl)-1H-indazole]: the IC50 against c-Kit(V654A) (Table 1, 200 μM ATP) came to 2 nM; in assay [1] (setting [2]), 66 nM.

`COCCOc1cc2[nH]nc(-c3cc(-c4ccc(C(=O)N5CC[C@H]5C(C)(C)O)cc4)on3)c2cc1F` [A148, (4-{3-[5-fluoro-6-(2-methoxy-ethoxy)-1H-indazol-3-yl]-isoxazol-5-yl}-phenyl)-[(S)-2-(1-hydroxy-1-methyl-ethyl)-azetidin-1-yl]-methanone]: the IC50 was 1.8 nM against c-Kit(V654A) (Table 1, 200 μM ATP) and 70 nM in assay [1] (setting [2]).

As for `O=C(c1ccc(-c2cc(-c3n[nH]c4cc(OCCO)c(F)cc34)on2)cc1)N1CCN(C2COC2)CC1` [A205, 2-{[5-fluoro-3-(3-{4-[4-(oxetan-3-yl)piperazine-1-carbonyl]phenyl}-1,2-oxazol-5-yl)-1H-indazol-6-yl]oxy}ethan-1-ol], the IC50 came to 23 nM against c-Kit(V654A) (Table 1, 200 μM ATP) and 130 nM in assay [1] (setting [2]).

Consider `COc1cc2[nH]nc(-c3cc(-c4ccc(C(=O)N5CCN(C6COC6)CC5)cc4)no3)c2cc1F` [A219, {4-[5-(5-Fluoro-6-methoxy-1H-indazol-3-yl)-isoxazol-3-yl]-phenyl}-(4-oxetan-3-yl-piperazin-1-yl)-methanone], for which the IC50 against c-Kit(V654A) (Table 1, 200 μM ATP) stood at 8 nM; in assay [1] (setting [2]), 280 nM.

Turning to `COCCOc1cc2[nH]nc(-c3cc(-c4ccc(C(=O)N5CCC6(CC5)COC6)cc4)no3)c2cc1F` [A60, 7-(4-{5-[5-fluoro-6-(2-methoxyethoxy)-1H-indazol-3-yl]-1,2-oxazol-3-yl}benzoyl)-2-oxa-7-azaspiro[3.5]nonane], the IC50 at c-Kit(V654A) (Table 1, 200 μM ATP) stood at 0.44 nM; in assay [1] (setting [2]), 28 nM.

Regarding `COCCOc1cc2[nH]nc(-c3cc(-c4ccc(C(=O)N5CC(N(C)C)C5)cc4)no3)c2cc1F` [A76, 1-(4-{5-[5-fluoro-6-(2-methoxyethoxy)-1H-indazol-3-yl]-1,2-oxazol-3-yl}benzoyl)-N,N-dimethylazetidin-3-amine], the IC50 against c-Kit(V654A) (Table 1, 200 μM ATP) worked out at 2 nM; in assay [1] (setting [2]) it was 79 nM.

Turning to `COCCOc1cc2[nH]nc(-c3cc(-c4ccc(C(=O)N5CC(N6CC7(COC7)C6)C5)cc4)no3)c2cc1F` [A187, 5-fluoro-6-(2-methoxyethoxy)-3-f{3-[4-(3-f{2-oxa-6-azaspiro[3.3]heptan-6-yl}azetidine-1-carbonyl)phenyl]-1,2-oxazol-5-yl}-1H-indazole], the IC50 against c-Kit(V654A) (Table 1, 200 μM ATP) worked out at 1.4 nM; in assay [1] (setting [2]), 290 nM.

`COCCOc1cc2[nH]nc(-c3cc(-c4ccc(C(=O)N5CC[C@H]6CNC(=O)[C@H]65)cc4)no3)c2cc1F` (relative stereo) [A89, (cis)-1-(4-{5-[5-fluoro-6-(2-methoxyethoxy)-1H-indazol-3-yl]-1,2-oxazol-3-yl}benzoyl)-octahydropyrrolo[3,4-b]pyrrol-6-one]: the IC50 on c-Kit(V654A) (Table 1, 200 μM ATP) was 0.57 nM; in assay [1] (setting [2]), 320 nM.

For the compound `COCCOc1cc2[nH]nc(-c3cc(-c4ccc(C(=O)N5CC[S+]([O-])CC5)cc4)no3)c2cc1F` [A78, 4-(4-{5-[5-fluoro-6-(2-methoxyethoxy)-1H-indazol-3-yl]-1,2-oxazol-3-yl}benzoyl)-1lambda4-thiomorpholin-1-one], the IC50 came out at 0.76 nM against c-Kit(V654A) (Table 1, 200 μM ATP) and 160 nM in assay [1] (setting [2]).

Turning to `COc1cc2[nH]nc(-c3cc(-c4ccc(C(=O)N5CC(N6CCOCC6)C5)cc4)no3)c2cc1F` [A61, 5-fluoro-6-methoxy-3-(3-{4-[3-(morpholin-4-yl)azetidine-1-carbonyl]phenyl}-1,2-oxazol-5-yl)-1H-indazole], the IC50 against c-Kit(V654A) (Table 1, 200 μM ATP) stood at 5.5 nM; in assay [1] (setting [2]), 110 nM.

`C[C@H]1CN(C)CCN1C(=O)c1ccc(-c2cc(-c3n[nH]c4cc(-c5cnn(C)c5)ccc34)on2)cc1` [A9, 3-(3-{4-[(2S)-2,4-dimethylpiperazine-1-carbonyl]phenyl}-1,2-oxazol-5-yl)-6-(1-methyl-1H-pyrazol-4-yl)-1H-indazole]: the IC50 on c-Kit(V654A) (Table 1, 200 μM ATP) amounted to 8.8 nM; in assay [1] (setting [2]), 130 nM.

Turning to `COCCOc1cc2[nH]nc(-c3cc(-c4ccc(C(=O)N5CCO[C@@H](C)C5)cc4)no3)c2cc1F` [A189, 5-fluoro-6-(2-methoxyethoxy)-3-(3-{4-[(2S)-2-methylmorpholine-4-carbonyl]phenyl}-1,2-oxazol-5-yl)-1H-indazole], the IC50 turned out to be 1.9 nM against c-Kit(V654A) (Table 1, 200 μM ATP) and 48 nM in assay [1] (setting [2]).
